Patent publication US20190017999A1, “IN VITRO SKIN IMMUNE SYSTEM SIMULATION SYSTEM” (Seoul National University R&DB Foudation, priority 2015, published 2019)
“Also recorded” adds a separate entry of the source.

Key:
Assay type in all cases: cell-based, human
[1] = system: HUVEC microvessels with U87MG cells; assay: Cancer angiogenesis assay in microfluidic chip (angiogenic sprouting from microvessels induced by U87MG cells); details: bevacizumab 500 μg/ml
Procedure: Human umbilical vein endothelial cells (HUVEC, Lonza) were cultured in endothelial cell growth medium (EGM-2, Lonza). Normal human lung fibroblasts (LF, Lonza) were cultured in fibroblast growth medium (FGM-2, Lonza). Human glioblastoma cells (U87MG, ATCC, Virginia) were cultured in DMEM medium supplemented with 10% fetal bovine serum (FBS), penicillin (100 U/ml) and streptomycin (100 U/ml). MDA-MA-231 cells were purchased from the ATCC (Manassas, Va.). MDA-MB-231 cells were transfected with a pEGFP plasmid, and cells were selected using 1 mg/ml G418 (A.G. scientific, Inc.). MDA-MA-231 GFP cells obtained from monoclones were incubated in RPMI1640 (WELGENE, Korea) supplemented with 10% fetal bovine serum, 1% penicillin/streptomycin (Gibco, BRL) and 250 μg/ml G418 (A.G. scientific, Inc.). All cells were incubated in a humidified incubator at 37° C. under 5% CO2. For immunostaining, endothelial cells were imaged using mouse monoclonal antibodies specific for human ZO-1 (Alexa Fluor594, clone ZO1-1A12, molecular probe), CD31 ([…], clone WM59, Biolegends), VE-cadherin (eBioscience) and claudin-5 (Invitrogen), and the nucleus was stained with Hoechst 33342 (molecular probe). Bevacizumab (Avastin, Genentech) was diluted to 500 μg/ml, and microvessels introduced with cancer were treated with the dilution in cancer angiogenesis experiments. Recombinant human TNF-alpha (PetroTech) was diluted to 5 ng/ml, and microvessels were treated with the dilution at 24 hours before introduction of cancer. […]
(§1) For the quantification of cancer angiogenesis, sprout area and the number of sprouts were manually quantified by using Image J. For quantification of cancer intravasation, the microvessels were stained with CD31 and fluorescence imaged, and cancer cells at the apical side of the microvessel were manually counted using the IMARIS software.
The present inventors analyzed the angiogenic potential of cancer cells by using the microvessels having a smooth vessel wall. […]

VE-cadherin = VE-cadherin immunostaining of cell-cell junctions in microvessels; details: 5 ng/ml TNF-α-treated microvessels versus control microvessels (FIG. 5B)
Procedure: (§2) Human umbilical vein endothelial cells (HUVEC, Lonza) were cultured in endothelial cell growth medium (EGM-2, Lonza). Normal human lung fibroblasts (LF, Lonza) were cultured in fibroblast growth medium (FGM-2, Lonza). Human glioblastoma cells (U87MG, ATCC, Virginia) were cultured in DMEM medium supplemented with 10% fetal bovine serum (FBS), penicillin (100 U/ml) and streptomycin (100 U/ml). MDA-MA-231 cells were purchased from the ATCC (Manassas, Va.). MDA-MB-231 cells were transfected with a pEGFP plasmid, and cells were selected using 1 mg/ml G418 (A.G. scientific, Inc.). […]
For microvascular DIC (Differential Interference Contrast Microscope) imaging, the Nikon AE31 microscope was used. […] Confocal images were analyzed using IMARIS software (Bitplane, Switzerland). For fluorescence imaging, FITC-dextran-injected samples were imaged using the IX81 inverted microscope (Olympus).
As a vessel to assess the transendothelial migration of MDA-MB-231 cancer cells, the microvessel obtained in the present invention was used. […] The number of cancer cells intravasated into the microvessels was manually counted. […] In addition, the effect of TNF-α on cancer cell intravasation was analyzed. the rate of intravasation with or without TNF-α treatment was compared (n=7 chips per condition). […]

[2] = system: blood vessels and pericytes (HUVEC-pericyte co-culture); assay: Response of co-cultured blood vessels and pericytes to added factors; details: factor added to blood vessel-pericyte co-culture of Example 5; compared to control group (FIG. 13)
[3] = system: MDA-MB-231 cancer cells intravasating into microvessels; assay: Cancer intravasation assay in microfluidic chip
Procedure: as §2, with “Inc.). MDA-MA-231 GFP cells obtained from monoclones were incubated in RPMI1640 (WELGENE, Korea) supplemented with 10% fetal bovine serum, 1% penicillin/streptomycin (Gibco, BRL) and 250 μg/ml G418 (A.G. scientific, Inc.).” for “Inc.).”
as §1
As a vessel to assess the transendothelial migration of MDA-MB-231 cancer cells, the microvessel obtained in the present invention was used. […] The number of cancer cells intravasated into the microvessels was manually counted. […]

microvessels (HUVEC) = assay: Microvessel permeability coefficient by time-lapse FITC-dextran imaging; details: 5 ng/ml TNF-α over 24 h
Procedure: as §2
To quantify the success rate of the smooth and continuous boundary of microvessels, the length of the vessel boundary was measured, and compared with the straight-line length of the blood vessel channel along the microvessel by use of image J. When the boundary length value was within ±10% of the linear length of the vascular channel, the chip was regarded as success. […] The acquired time-lapse image was analyzed using Image J, and the permeability coefficient was calculated using Equation 1 below: […]
The present inventors introduced 20 kDa FITC-dextran solution into the microvessel to verify the patency of the lumen, and visualized the behavior of the lumen using fluorescence microscopy. […] The present inventors analyzed the junctions by fluorescent immunostaining for claudin-5 and ZO-1 (FIGS. 3C and 3D). […]

[4] = 3 days after introduction of U87MG cells, versus U87MG without bevacizumab

Molecule	coverage area of sprouts [1, 4]	number of sprouts [1, 4]	microvascular sprouts / vessel boundary in micrographs ([1]; microscopic images 3 days after injection of cancer cells (FIG. 4A))	VE-cadherin junction morphology (VE-cadherin)	response of pericytes and blood vessels [2]	rate of cancer intravasation relative to control ([3]; 5 ng/ml TNF-α 24 hours before introduction of MDA-MB-231 cells, n=7 chips per condition)	rate of cancer intravasation (in words) ([3]; TNF-α-treated microvessels compared with control experiment, p<0.0005)	permeability of TNF-α-treated microvessels (microvessels (HUVEC); mean±standard error, n=5 chips)	permeability relative to normal condition (microvessels (HUVEC); versus normal condition)
bevacizumab: anti-vascular endothelial growth factor (anti-VEGF) antibody, Avastin, Genentech	significantly reduced; also recorded: drastically decreasing	significantly reduced; also recorded: drastically decreasing	greatly reduced; also recorded: flat boundary without angiogenic sprouts						
TNF-α				disrupted and pleated form; also recorded: disrupted continuity and wrinkled morphology	pericytes sprouted out from the blood vessels and formed many filopodia	3 fold	very high rate of cancer intravasation	2.22±0.67×10^−6 cm/s	1.4 fold
IL-1a: typical factor occurring in the peritumoral environment and inflammatory conditions (protein, UniProt P01583 113-271, looked up) Interleukin-1 alpha: SAPFSFLSNVKYNFMRIIKYEFILNDALNQSIIRANDQYLTAAALHNLDEAVKFDMGAYKSSKDDAKITVILRISKTQLYVTAQDEDQPVLLKEMPEIPKTITGSETNLLFFWETHGTKNYFTSVAHPNLFIATKQDYWVCLAGGPPSITDFQILENQA					pericytes sprouted out from the blood vessels and formed many filopodia				
